# According to patent US8263823B2, “Immunocompetent xenograft model” (Adimmu Institute Inc., priority 2008, dated 2012):
# How the values were obtained:
# [1] = test system: CD8+ 2C transgenic T-cells; settings: chemotherapy (dacarbazine) alone, compared to the control mice
# Method: Lymph node (LN) cells and splenocytes (SP) were isolated from 2C TCR Tg mice. […] Cells were isolated from the inguinal LNs (DLNs), SP, or tumors at the time indicated. CFSE dilution was evaluated as described in Yu, at Id.
# In order to identify the effects of the chemotherapy on CD8+ T-cell priming, 5×10^5 B16-SIY melanoma cells were injected s.c. in the B6 mice. On day 17, 2×10^6 CFSE labeled naïve CD8+ 2C transgenic T-cells were adoptively transferred into the B16-SIY tumor bearing mice. The mice were treated locally with 20 Gy of radiation on day 0 following the transfer. 200 mg/kg dacarbazine i.p. was given two days after the adoptive transfer, and DLN and SP were harvested on day 21 to determine the CFSE dilution in the DLN and SP.
# TUBO cells = assay: TUBO tumor size after aHER2, DOXORUBICIN or their combination; format: in vivo, mouse; settings: DOXORUBICIN alone (5 or 15 mg/kg), intratumoral
# Method: (§1) Cultured cancer cells were trypsinized, washed with media, and injected s.c. on the back. Tumor size was determined at 3-4 day intervals. Tumor volumes were measured along three orthogonal axes (a, b, and c) and calculated as tumor volume=abc/2.
# Combination therapy of aHER2 and a chemotherapeutic could show the same reduction in efficacy due to the immunosuppressive action of the chemotherapeutic. To show this, 1×10^6 TUBO cells were injected into Balb/c mice. After the tumor was well-established, the mice were separated into groups subject to the following groups of treatments: (i) 80 μg mIgG only, (ii) 80 μg aHER2 only, (iii) 5 mg/kg DOXORUBICIN only, (iv) 15 mg/kg DOXORUBICIN only, (v) a combination of 80 μg aHER2 and 5 mg/kg DOXORUBICIN, and (vi) a combination of 80 μg aHER2 and 15 mg/kg DOXORUBICIN. The antibodies and chemotherapeutic were administered intratumorally, the time injections and tumor size measurements were taken at 19 and 26 days after tumor injection.
# 4T1 tumor cells [2] = assay: 4T1 breast tumor model, primary tumor growth, radiation therapy with or without paclitaxel; format: in vivo, mouse; settings: paclitaxel 20 mg/kg i.p. on days 7 and 14 after radiation therapy (15 Gy x3), Balb/c mice
# Method: The mice were irradiated using an x-ray generator (PCM 1000; Pantak) at the doses indicated by each experiment. Each mouse was protected with a lead cover with only tumor exposed, allowing local irradiation. For systemic chemotherapy, tumor-bearing mice were injected i.p. with 20 mg/kg paclitaxel (Ameristat Pharmaceuticals) for 4T1 bearing mice and 200 mg/kg dacarbazine (Bedford Laboratories) for B16 bearing mice.
# as §1
# A 4T1 breast tumor model was used to show the results of the test on a different type of tumor. 1×10^5 4T1 tumor cells were injected and allowed to establish for 14 days. Balb/c control mice receive the breast cancer cells and no radiation, and other mice receive radiation therapy only, chemotherapy only, or a combination of radiation therapy followed by chemotherapy. The mice receiving radiation received a dose of 15 Gy on each of days 14, 15, and 16. On days 7 and 14 following radiation therapy, the mice receiving a combination of radiation therapy and chemotherapy received 20 mg/kg paclitaxel i.p.
# 4T1 tumor cells [3] = assay: 4T1 lung metastases colonogenic assay, radiation therapy with or without paclitaxel; format: in vivo, mouse
# Description: For surgical excision of primary 4T1 and B16-CCR7 tumors, mice were anesthetized, and tumors were resected with sterilized instruments. A colonogenic assay was used to evaluate metastases in 4T1 and B16-CCR7 tumors as described in B. A. Pulaski, S. Ostrand-Rosenberg, Curr Protoc Immunol Chapter 20, Unit 20 2 (May, 2001), incorporated herein by reference in its entirety. Lungs for 4T1 tumor or DLN for B16-CCR7 were collected, chopped and dissociated in DMEM supplemented with 10% FCS containing 1.5 mg/ml collagenase type D (Sigma-Aldrich) for 20 min in 37° C. shaking incubator. Single cell suspensions were plated at various dilutions in media supplemented with 10% FCS and selection drug. 4T1 is resistant to 6-thioguanine ([…]) and B16-CCR7 is resistant to G418 (0.7 mg/ml). Individual colonies representing micrometastases were counted after 5-10 days.
# 1×10^5 4T1 tumor cells were injected s.c. to the Balb/c mice, and the mice received 15 Gy of radiation on each days 12, 13, and 14.
smiles,measurement,setting,value
CN(C)/N=N/c1[nH]cnc1C(N)=O [dacarbazine],proliferation of cytotoxic lymphocytes (CTL),[1],did not elicit proliferation of cytotoxic lymphocytes (CTL)
COc1cccc2c1C(=O)c1c(O)c3c(c(O)c1C2=O)C[C@@](O)(C(=O)CO)C[C@@H]3O[C@H]1C[C@H](N)[C@H](O)[C@H](C)O1 [DOXORUBICIN],tumor burden,TUBO cells,reduces tumor burden
CC(=O)O[C@H]1C(=O)[C@@]2(C)[C@H]([C@H](OC(=O)c3ccccc3)[C@]3(O)C[C@H](OC(=O)[C@H](O)[C@@H](NC(=O)c4ccccc4)c4ccccc4)C(C)=C1C3(C)C)[C@]1(OC(C)=O)CO[C@@H]1C[C@@H]2O [paclitaxel],tumor regression,4T1 tumor cells [2],significantly hindered melanoma tumor regression and promoted tumor outgrowth
same,degree of metastases in the lungs,"4T1 tumor cells [3]; chemotherapy (paclitaxel) alone, compared to the control mice",little effect on the degree of metastases in the lungs
same,increase in tumor colonies in the lungs,"4T1 tumor cells [3]; paclitaxel 20 mg/kg i.p. on days 7 and 14 after radiation therapy (15 Gy x3), versus radiation therapy alone",100 fold
